Reference: ChEMBL document CHEMBL1201862, “PubChem BioAssay data set” (2004)
Values joined by “and” are separate entries in the source; they are usually repeats but may differ in a detail not shown here. Equal values may be shown once.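 All cell lines were grown in 96-well plates and treated with compound for 48 hours. GI50 marks 50% less growth.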 Active and inactive are the calls of the source. Rule as the data show it: active = GI50 up to about 1.1 µM and inactive = higher.

Columns and labels:
Test in all cases: DTP human tumour cell line panel, 48 h
EKVX = test system: EKVX
LXFL 529 = test system: LXFL 529
SNB-78 = test system: SNB-78
MOLT-4 = test system: MOLT-4
SF-268 = test system: SF-268
A498 = test system: A498
NCI-H226 = test system: NCI-H226
UACC-62 = test system: UACC-62
TK-10 = test system: TK-10
U-251 = test system: U-251
DMS-273 = test system: DMS-273
HCC 2998 = test system: HCC 2998
HCT-116 = test system: HCT-116
SF-295 = test system: SF-295
786-0 = test system: 786-0
XF498 = test system: XF498
M19-MEL = test system: M19-MEL
OVCAR-8 = test system: OVCAR-8
SW-620 = test system: SW-620
SF-539 = test system: SF-539
KM12 = test system: KM12
HOP-18 = test system: HOP-18
UO-31 = test system: UO-31
HCT-15 = test system: HCT-15
OVCAR-5 = test system: OVCAR-5
HOP-62 = test system: HOP-62
IGROV-1 = test system: IGROV-1
RPMI-8226 = test system: RPMI-8226
KM-20L2 = test system: KM-20L2
DLD-1 = test system: DLD-1
OVCAR-4 = test system: OVCAR-4
NCI-H23 = test system: NCI-H23
COLO 205 = test system: COLO 205
NCI-H522 = test system: NCI-H522
LOX IMVI = test system: LOX IMVI
SNB-19 = test system: SNB-19
A549 = test system: A549
DMS-114 = test system: DMS-114
HT-29 = test system: HT-29
SK-MEL-2 = test system: SK-MEL-2
UACC-257 = test system: UACC-257
SK-MEL-28 = test system: SK-MEL-28
M14 = test system: M14
OVCAR-3 = test system: OVCAR-3
K562 = test system: K562
SK-OV-3 = test system: SK-OV-3
HL-60 = test system: HL-60
NCI-H460 = test system: NCI-H460
HOP-92 = test system: HOP-92
Malme-3M = test system: Malme-3M
CAKI-1 = test system: CAKI-1
ACHN = test system: ACHN
CCRF-CEM = test system: CCRF-CEM
SN12C = test system: SN12C
SK-MEL-5 = test system: SK-MEL-5
RXF 393 = test system: RXF 393
SNB-75 = test system: SNB-75
SR = test system: SR

COC(=O)C1=C(C)N(NC(N)=O)C(C)(O)C12CCOC2=O (stereo not given)
GI50 (EKVX): > 100 µM (inactive)
GI50 (LXFL 529): > 100 µM (inactive)
GI50 (SNB-78): > 100 µM (inactive)
GI50 (MOLT-4): > 100 µM (inactive)
GI50 (SF-268): > 100 µM (inactive)
GI50 (A498): > 100 µM (inactive)
GI50 (NCI-H226): > 100 µM (inactive)
GI50 (UACC-62): > 10 µM (inactive)
GI50 (TK-10): > 100 µM (inactive)
GI50 (U-251): > 100 µM (inactive)
GI50 (DMS-273): > 100 µM (inactive)
GI50 (HCC 2998): < 0.01 µM (active)
GI50 (HCT-116): > 100 µM (inactive)
GI50 (SF-295): > 100 µM (inactive)
GI50 (786-0): > 100 µM (inactive)
GI50 (XF498): > 100 µM (inactive)
GI50 (M19-MEL): > 100 µM (inactive)
GI50 (OVCAR-8): > 100 µM (inactive)
GI50 (SW-620): > 100 µM (inactive)
GI50 (SF-539): > 100 µM (inactive)
GI50 (KM12): > 100 µM (inactive)
GI50 (HOP-18): > 100 µM (inactive)
GI50 (UO-31): > 100 µM (inactive)
GI50 (HCT-15): > 100 µM
GI50 (OVCAR-5): > 100 µM (inactive)
GI50 (HOP-62): > 100 µM (inactive)
GI50 (IGROV-1): > 100 µM (inactive)
GI50 (RPMI-8226): > 100 µM (inactive)
GI50 (KM-20L2): > 100 µM (inactive)
GI50 (DLD-1): > 100 µM (inactive)
GI50 (OVCAR-4): > 100 µM (inactive)
GI50 (NCI-H23): > 100 µM (inactive)
GI50 (COLO 205): > 100 µM (inactive)
GI50 (NCI-H522): > 100 µM (inactive)
GI50 (LOX IMVI): > 100 µM (inactive)
GI50 (SNB-19): > 100 µM (inactive)
GI50 (A549): > 100 µM (inactive)
GI50 (DMS-114): > 100 µM (inactive)
GI50 (HT-29): > 100 µM (inactive)
GI50 (SK-MEL-2): > 100 µM (inactive)
GI50 (UACC-257): > 100 µM (inactive)
GI50 (SK-MEL-28): > 100 µM (inactive)
GI50 (M14): > 100 µM (inactive)
GI50 (OVCAR-3): > 100 µM (inactive)
GI50 (K562): > 100 µM (inactive)
GI50 (SK-OV-3): > 100 µM (inactive)
GI50 (HL-60): > 100 µM (inactive)
GI50 (NCI-H460): > 100 µM (inactive)
GI50 (HOP-92): > 100 µM (inactive)
GI50 (Malme-3M): > 100 µM (inactive)
GI50 (CAKI-1): > 100 µM (inactive)
GI50 (ACHN): > 100 µM (inactive)
GI50 (CCRF-CEM): > 100 µM (inactive)
GI50 (SN12C): > 100 µM (inactive)

COc1c(O)c2c3c(c(C)cc(O)c3c1O)C(=O)C(O)(C(C)(C)C(C)=O)C2=O (stereo not given)
GI50 (LXFL 529): > 100 µM (inactive)
GI50 (SNB-78): 71.8 µM (inactive)
GI50 (MOLT-4): > 100 µM (inactive)
GI50 (SF-268): > 100 µM (inactive)
GI50 (NCI-H226): 19.3 µM (inactive)
GI50 (TK-10): > 100 µM (inactive)
GI50 (U-251): > 100 µM (inactive)
GI50 (DMS-273): > 100 µM (inactive)
GI50 (HCT-116): > 100 µM (inactive)
GI50 (786-0): > 100 µM (inactive)
GI50 (XF498): > 100 µM (inactive)
GI50 (M19-MEL): 14.7 µM (inactive) and 18.4 µM (inactive)
GI50 (OVCAR-8): > 100 µM (inactive)
GI50 (SW-620): > 100 µM (inactive)
GI50 (SF-539): > 100 µM (inactive)
GI50 (KM12): > 100 µM (inactive)
GI50 (HOP-18): > 100 µM (inactive)
GI50 (UO-31): > 100 µM (inactive)
GI50 (SK-MEL-5): 77.1 µM (inactive)
GI50 (HCT-15): > 100 µM
GI50 (OVCAR-5): > 100 µM (inactive)
GI50 (HOP-62): > 100 µM (inactive)
GI50 (IGROV-1): > 100 µM (inactive)
GI50 (RPMI-8226): > 100 µM (inactive) and 82.2 µM (inactive)
GI50 (KM-20L2): > 100 µM (inactive)
GI50 (DLD-1): > 100 µM (inactive)
GI50 (OVCAR-4): > 100 µM (inactive)
GI50 (RXF 393): > 100 µM (inactive)
GI50 (NCI-H23): > 100 µM (inactive)
GI50 (COLO 205): > 100 µM (inactive)
GI50 (SNB-19): > 100 µM (inactive)
GI50 (SNB-75): > 100 µM (inactive) and 61 µM (inactive)
GI50 (A549): > 100 µM (inactive)
GI50 (HT-29): > 100 µM (inactive)
GI50 (SK-MEL-2): > 100 µM (inactive)
GI50 (UACC-257): > 100 µM (inactive)
GI50 (SK-MEL-28): > 100 µM (inactive)
GI50 (M14): > 100 µM (inactive)
GI50 (OVCAR-3): > 100 µM (inactive)
GI50 (SK-OV-3): > 100 µM (inactive)
GI50 (HL-60): 51.4 µM (inactive) and 50.9 µM (inactive)
GI50 (NCI-H460): > 100 µM (inactive)
GI50 (HOP-92): > 100 µM (inactive)
GI50 (Malme-3M): > 100 µM (inactive)
GI50 (CAKI-1): > 100 µM (inactive)
GI50 (ACHN): > 100 µM (inactive)
GI50 (CCRF-CEM): 61.9 µM (inactive) and 57 µM (inactive)
GI50 (SN12C): > 100 µM (inactive) and 82.4 µM (inactive)

CC1(O)C=CC(=O)C=C1
GI50 (EKVX): 47.3 µM (inactive)
GI50 (LXFL 529): 13.3 µM (inactive)
GI50 (SNB-78): 34.8 µM (inactive)
GI50 (MOLT-4): 19.2 µM (inactive)
GI50 (SR): 16.2 µM (inactive)
GI50 (SF-268): 13.9 µM (inactive)
GI50 (A498): 37.6 µM (inactive)
GI50 (NCI-H226): > 100 µM (inactive)
GI50 (UACC-62): 18.5 µM (inactive)
GI50 (TK-10): 44.1 µM (inactive)
GI50 (U-251): 21.9 µM (inactive)
GI50 (DMS-273): 18.3 µM (inactive)
GI50 (HCC 2998): > 71.6 µM (inactive)
GI50 (HCT-116): 60.1 µM (inactive)
GI50 (SF-295): 57.1 µM (inactive)
GI50 (786-0): 20.7 µM (inactive)
GI50 (XF498): 29.1 µM (inactive)
GI50 (M19-MEL): 22.6 µM (inactive)
GI50 (OVCAR-8): 25.3 µM (inactive)
GI50 (SW-620): 59.2 µM (inactive)
GI50 (SF-539): 23.5 µM (inactive)
GI50 (KM12): > 48.2 µM (inactive)
GI50 (HOP-18): 58.2 µM (inactive)
GI50 (UO-31): 36.6 µM (inactive)
GI50 (SK-MEL-5): > 55 µM (inactive)
GI50 (HCT-15): 16 µM
GI50 (OVCAR-5): 98.2 µM (inactive)
GI50 (HOP-62): > 52.6 µM (inactive)
GI50 (IGROV-1): 26.8 µM (inactive)
GI50 (RPMI-8226): 30.1 µM (inactive)
GI50 (KM-20L2): 32 µM (inactive)
GI50 (DLD-1): 12.4 µM (inactive)
GI50 (OVCAR-4): 40.9 µM (inactive)
GI50 (RXF 393): 21.6 µM (inactive)
GI50 (NCI-H23): 30.3 µM (inactive)
GI50 (COLO 205): 34.8 µM (inactive)
GI50 (NCI-H522): 18.6 µM (inactive)
GI50 (LOX IMVI): 20.4 µM (inactive)
GI50 (SNB-19): 25.7 µM (inactive)
GI50 (SNB-75): > 56.1 µM (inactive)
GI50 (A549): > 76.4 µM (inactive)
GI50 (DMS-114): 16.4 µM (inactive)
GI50 (HT-29): 38.4 µM (inactive)
GI50 (SK-MEL-2): 24.7 µM (inactive)
GI50 (UACC-257): 17.7 µM (inactive)
GI50 (SK-MEL-28): 18.8 µM (inactive)
GI50 (M14): 20.1 µM (inactive)
GI50 (OVCAR-3): 24.2 µM (inactive)
GI50 (K562): 33.5 µM (inactive)
GI50 (SK-OV-3): > 100 µM (inactive)
GI50 (HL-60): 16.4 µM (inactive)
GI50 (NCI-H460): 20.3 µM (inactive)
GI50 (HOP-92): > 100 µM (inactive)
GI50 (Malme-3M): 20.3 µM (inactive)
GI50 (CAKI-1): 30.8 µM (inactive)
GI50 (ACHN): 27.5 µM (inactive)
GI50 (CCRF-CEM): 22.2 µM (inactive)
GI50 (SN12C): 52.7 µM (inactive)
